# Assay results reported in BindingDB's records for patent US20240101552 (Shanghai Pharmaceuticals Holding Co., 2024).
# Molecular target: T1, LanC-like protein 2 (Homo sapiens, UniProt Q9NS86)
# T1 sequence (Q9NS86 whole entry): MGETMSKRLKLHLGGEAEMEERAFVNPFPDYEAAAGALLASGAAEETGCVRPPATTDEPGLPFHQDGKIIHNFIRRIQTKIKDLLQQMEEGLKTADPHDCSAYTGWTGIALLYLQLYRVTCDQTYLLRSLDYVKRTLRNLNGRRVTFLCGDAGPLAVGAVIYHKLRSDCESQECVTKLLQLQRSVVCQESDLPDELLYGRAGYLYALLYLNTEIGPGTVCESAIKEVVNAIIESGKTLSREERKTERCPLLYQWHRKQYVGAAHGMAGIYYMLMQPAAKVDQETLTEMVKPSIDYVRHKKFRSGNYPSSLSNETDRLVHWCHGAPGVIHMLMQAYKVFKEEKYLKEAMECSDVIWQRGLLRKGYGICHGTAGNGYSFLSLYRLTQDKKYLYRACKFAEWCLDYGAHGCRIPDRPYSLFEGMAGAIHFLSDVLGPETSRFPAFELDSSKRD
# Assay: Receptor Binding Assay
# Method: 1. […] The kinetic parameters of small molecules BT-11 and L-1 to 60 (analytes) binding to LANCL2 (ligand) were determined using BIACORE S200. Data were generated in triplicate in a dose-dependent manner (5-8 titration points) and analyzed to determine binding models (Langmuir, conformational shifts, etc.), real-time association and dissociation constants, and equilibrium dissociation constants. SPR technology allows the validation of specific LANCL2-phytochemical interactions as well as an increased insight into the gold standard of binding mechanisms and rates. Experiments were performed on carboxymethyl polydextrose (CM5) sensor chips by amine-coupled covalent attachment of LANCL2. Data were analyzed with BIACORE S200T200 evaluation software (version 1), so as to determine affinity binding constants (KD) using a 1:1 binding model.
row,SMILES,Kd [µM]
1,"O=C(Nc1ccccc1NC(=O)c1cccc(-c2cn3ccccc3n2)c1)c1cccc(-c2cn3ccccc3n2)c1 [US20240101552, Compound L-1]",4.46
2,"O=C(NC1C2CN(C(=O)c3cccc(-c4cn5ccccc5n4)c3)CC21)c1cccc(-c2nc3ccccc3[nH]2)n1 [US20240101552, Compound L-2]",0.719
3,"O=C(c1cccc(-c2cn3ccccc3n2)c1)N1CCC2(CC1)CCN(C(=O)c1cccc(-c3nc4ccccc4[nH]3)n1)CC2 [US20240101552, Compound L-3]",6.92
4,"O=C(c1cccc(-c2cn3ccccc3n2)c1)N1CC2CC1CN2C(=O)c1cccc(-c2nc3ccccc3[nH]2)n1 [US20240101552, Compound L-4]",40
5,"O=C(NC1CCN(C(=O)c2cccc(-c3nc4ccccc4[nH]3)n2)CC1)c1cccc(-c2cn3ccccc3n2)c1 [US20240101552, Compound L-5]",17
6,"O=C(c1cccc(-c2nc3ccccc3[nH]2)n1)N1CC2CN(C(=O)c3cccc(-c4nc5ccccc5[nH]4)n3)CC2C1 [US20240101552, Compound L-10]",18.4
7,"O=C(c1cccc(-c2nc3ccccc3[nH]2)n1)N1CCC2(CC1)CCN(C(=O)c1ccnc(N3CCOCC3)n1)CC2 [US20240101552, Compound L-15]",2.3
8,"O=C(c1cccc(-c2nc3ccccc3[nH]2)n1)N1CC2CN(C(=O)c3ccnc(N4CCOCC4)n3)CC2C1 [US20240101552, Compound L-16]",84.9
9,"O=C(c1cccc(-c2nc3ccccc3[nH]2)n1)N1CC2CN(C(=O)c3ccnc(Nc4ccccc4)n3)CC2C1 [US20240101552, Compound L-24]",57.3
10,"O=C(NC1C2CN(C(=O)c3cccc(-c4nc5ccccc5[nH]4)n3)CC21)c1ccnc(Nc2ccccn2)n1 [US20240101552, Compound L-25]",2.01
11,"O=C(c1cccc(-c2nc3ccccc3[nH]2)n1)N1CC2CN(C(=O)c3ccnc(Nc4ccccn4)n3)CC2C1 [US20240101552, Compound L-26]",65.8
12,"O=C(NC1CCN(C(=O)c2cccc(-c3nc4ccccc4[nH]3)n2)CC1)c1cccc([N+](=O)[O-])c1 [US20240101552, Compound L-38]",9.09
13,"O=C(N[C@H]1[C@@H]2CN(C(=O)c3cccnc3Oc3ccccc3)C[C@@H]21)c1cccc(-c2cn3ccccc3n2)c1 [US20240101552, Compound L-105]",17.5
14,"O=C(N[C@H]1[C@@H]2CN(C(=O)c3n[nH]c4ccccc34)C[C@@H]21)c1cccc(-c2cn3ccccc3n2)c1 [US20240101552, Compound L-106]",4.32

# Results, then the molecule that gave them:
row,Kd [µM],SMILES
1,6.33,"O=C(C1CCCN1C(=O)c1cccc(-c2cn3ccccc3n2)c1)N1CC2CN(c3ccc([N+](=O)[O-])cc3)CC2C1 [US20240101552, Compound L-39]"
2,3.21,"O=C(c1cccc([N+](=O)[O-])c1)N1CCC2(CC1)CCN(C(=O)c1cccc(-c3nc4ccccc4[nH]3)n1)CC2 [US20240101552, Compound L-40]"
3,27.6,"O=C(c1cccc([N+](=O)[O-])c1)N1CC2CN(C(=O)c3cccc(-c4nc5ccccc5[nH]4)n3)CC2C1 [US20240101552, Compound L-41]"
4,49.2,"O=C(c1cccc(-c2cn3ccccc3n2)c1)N1CC2CN(C(=O)c3ccnc(Nc4ccccc4)n3)CC2C1 [US20240101552, Compound L-43]"
5,8.31,"O=C(c1cccc(Nc2ccccc2)n1)N1CCC2(CC1)CCN(C(=O)c1cccc(-c3nc4ccccc4[nH]3)n1)CC2 [US20240101552, Compound L-45]"
6,13.3,"O=C(NC1CCN(C(=O)c2cccc(-c3nc4ccccc4[nH]3)n2)CC1)c1cccc(Nc2ccccc2)n1 [US20240101552, Compound L-47]"
7,36,"O=C(c1ccnc(Nc2ccccn2)c1)N1CC2CN(C(=O)c3cccc(-c4nc5ccccc5[nH]4)n3)CC2C1 [US20240101552, Compound L-53]"
8,16.8,"O=C(c1cccc(-c2cn3ccccc3n2)c1)N1CC2CN(C(=O)c3cccc(-c4nc5ccccc5[nH]4)n3)CC2C1 [US20240101552, Compound L-55]"
9,23.2,"O=C(c1cccc(Nc2ccccc2)n1)N1CCC2(CCN(C(=O)c3cccc(-c4nc5ccccc5[nH]4)n3)CC2)C1 [US20240101552, Compound L-61]"
10,2.53,"O=C(N[C@H]1[C@@H]2CN(C(=O)c3cccc(-c4cn5ccccc5n4)c3)C[C@@H]21)c1cccc(-c2cn3ccccc3n2)c1 [US20240101552, Compound L-89]"
11,9.5,"O=C(N[C@H]1[C@@H]2CN(C(=O)c3cccc(Nc4ccccc4)n3)C[C@@H]21)c1cccc(-c2cn3ccccc3n2)c1 [US20240101552, Compound L-90]"
12,12.2,"O=C(c1ccnc(Nc2ccccc2)n1)N1CCC2(CC1)CCN(C(=O)c1ccnc(Nc3ccccn3)n1)CC2 [US20240101552, Compound L-98]"
13,5.41,"O=C(NC1CCN(C(=O)c2ccnc(Nc3ccccc3)n2)CC1)c1ccnc(Nc2ccccn2)n1 [US20240101552, Compound L-99]"
14,29.5,"O=C(c1cccc(Nc2ccccc2)n1)N1CC2CN(C(=O)c3ccnc(Nc4ccccc4)n3)CC2C1 [US20240101552, Compound L-102]"
15,24.1,"O=C(N[C@H]1[C@@H]2CN(C(=O)c3cccc(Nc4ccccc4)n3)C[C@@H]21)c1ccnc(Nc2ccccc2)n1 [US20240101552, Compound L-103]"
16,10.8,"O=C(NC1CCN(C(=O)c2cccc(Nc3ccccc3)n2)CC1)c1cccc(Nc2ccccc2)n1 [US20240101552, Compound L-114]"
17,8.73,"O=C(Nc1cccc(-c2cn3ccccc3n2)c1)N1CCN(C(=O)c2cccc(-c3nc4ccccc4[nH]3)n2)CC1 [US20240101552, Compound L-118]"
